From patent publication US8519127B2, “Cyclic glycyl-2-allyl proline and its use in treatment of peripheral neuropathy” (priority 2003, dated 2013)

How the values were obtained:
[1] = system: cleaved caspase-3 protein; conditions: rats exposed to hypoxia/ischaemia; cited from earlier work
[2] = system: diabetic rats; experiment: Streptozotocin-induced diabetic neuropathy, tactile allodynia (von Frey hairs); type: in vivo, rat; conditions: 3-30 mg/kg p.o. 1/day for 14 days; STZ-diabetic rats
Method: Rats (225-250 g) are rendered diabetic by an i.p. injection of streptozotocin (STZ; 75 mg/kg). A diabetic condition is confirmed in each rat 10 days later by measurement of tail vein blood glucose levels. Only rats with a final blood glucose level>13.8 mM are considered diabetic and are included in the experiment.
Hyperglycemic, diabetic rats are dosed with cG-2-allylP (3-30 mg/kg, p.o. 1/day) from day 14 until day 28 (for a total of 14 days of treatment). Glucose measurements are taken on day 14 (pre-dose), day 21, day 28 and day 42.
Rats are tested for tactile allodynia on days 14 (pre-dose), and on days 16, 21, 28, 35 and 42 using van Frey hairs. Rats are tested for responsivity to von Frey hairs with calibrated bending forces of 1.5-15 g, to deliver punctate mechanical stimuli of varying intensities. Filaments exerting a force above 15 g are not used. Starting with the lowest filament force (1.5 g), von Frey hairs are applied to the plantar surface of the hind paw, with sufficient force to cause slight bending against the paw, and held for 1 s. Each stimulation is applied five times with an inter-stimulus interval of 5-10 s. Care is taken to stimulate random locations on the plantar surface. A positive response is noted if the paw was robustly and immediately withdrawn. […]

[3] = system: microglia; conditions: response to hypoxia-ischemia in rat model; cited from earlier work
[4] = system: pyridoxine-intoxicated rats; experiment: Pyridoxine-induced peripheral neuropathy: body weight and beam walk errors; type: in vivo, rat; conditions: for body weight (percentage of baseline weight): pyridoxine 400 mg/kg i.p. b.i.d. days 1-8, vs vehicle, FIG. 5
Method: […] Sprague-Dawley rats were habituated to walk across a wooden beam (4 cm diameter, 175 cm long, circular cross-section) over a training period of 8 days prior to initiating neuropathic toxicity treatment. Animals were weighed on the day prior to pyridoxine injection (mean body weight 270 g) and were randomized into treatment groups as follows: vehicle control (distilled water, n=16), 3 mg/kg cG-2-allylP (n=16) or 30 mg/kg cG-2-allylP (n=16). All groups received pyridoxine (400 mg/kg i.p.) 2/day for 8 days (days 1-8) and either vehicle or cG-2-allylP (3 or 30 mg/kg, p.o.) 1/day on days 1-10. Body weights were monitored throughout treatment and until study day 28. Beam walking was assessed on days 0 (baseline), 14, 21, and 28. Beam walk errors were assessed according to the method of Callizot (Callizot et al, Pyridoxine-Induced Neuropathy in Rats: a Sensory neuropathy that Responds to 4-methylcatechol, Neurobiol. Dis. 8:626-635 (2001.)) incorporated herein fully by reference. Each rat was scored for 7 steps taken in traversing the beam, as follows: 1=hind-paw placed on the top of the beam (normal); 2=paw contacted the lateral line of the beam; 3=paw overlapping the lateral line on the beam; 4=rat unable to place its feet on the beam. Rats that could walk across the beam therefore recorded a maximum functional deficit score of 28. Rats unable to take 7 steps along the beam scored 30, while rats unable to balance on the beam at all scored 32.
Two-way analysis of variance (ANOVA) was conducted on beam walk performance data, with time and treatment as variables, applying Bonferroni post-hoc tests to assess individual treatment condition differences. Statistical significance was assumed if p<0.05.

[5] = system: cerebellar neurons; experiment: Cerebellar microexplants exposed to glutamate and 3-nitropropionic acid; live neurons with neurites counted; type: cell-based, rat; conditions: for number of cells having neurites: administered simultaneously with glutamate, FIG. 1 / FIG. 2; for glutamate-induced neurotoxicity: low doses (cG-2AllylP: 100 pm to 10 nm)
Method: Cover slips were placed into a large Petri dish and washed in 70% alcohol for 5 minutes, then washed with Millipore H2O. The cover slips were air dried, and coated with Poly-D-Lysine (1 mg/ml stock solution in PBS, 90-100 μl) for 2 hours at 34° C.
Postnatal day 8 Wistar rats were used for the study. The rats were sacrificed and placed in ice for 1 minute, decapitated and the cerebellum removed and placed on ice. Cerebellum tissue was placed in 1 ml of 0.65% glucose-supplemented PBS (10 μl 65% stock D (+)glucose/1 ml PBS) in a large Petri dish, chopped up into smaller sections and triturated with a 1 ml insulin syringe via a 23 G (0.4 mm) needle, and then squirted back into the glucose solution in the large Petri dish. The tissue was sieved through (125 μm pore size gauze) and centrifuged (2 minutes at 60 g) twice to exchange the medium into serum-free BSA-supplemented START V medium (Biochrom, Germany). The second centrifugation step was done with 1 ml of START V medium. The microexplants were reconstituted into 500 μl of START V medium and put on ice.
Two hours after PDL-coating, the slides were washed with Millipore H2O and air dried. Each slide was placed into a small Petri dish (diameter: 35 mm) and 40 μl of START V/cell suspension was added. The tissue was incubated for 2 hours at 34° C. (settlement period). START V-medium (1 ml) was then added to the Petri dish and cultivated at 34° C. in the presence of 5% CO2 in air at 100% humidity for 48 hours.
For the study, certain explant cultures were exposed to vehicle (PBS) only. In the first study (Study 1) 10 μl of toxin 1 (L-glutamate-100 mM in Millipore water; final concentration: 1 mM) and 10 μl of toxin 2 (3-nitropropionic acid-50 mM-pH 7-in Millipore water, final concentration: 0.5 mM) was applied simultaneously with the drug to be tested ([…]). In each case, the drugs were left in contact with the explants for the duration of the study.
After explants were exposed to drugs for the study period, cells were then rinsed in PBS and then fixed in increasing concentrations of paraformaldehyde (500 μl of 0.4% PFA was applied; then 1.2% PFA; then 3% PFA and finally 4% PFA (each fixation step: 2-3 minutes). Finally, the microexplants were rinsed in PBS.
Neurons in the explants were then evaluated for morphology (presence of neurites) and counted as live cells per microscopic field. Four fields displaying highest cell density were counted per cover slip and the data presented as mean±standard error of the mean (SEM); n=4 each. Statistical significance was evaluated by using the non-paired Student's t-test.

[6] = system: rats exposed to hypoxic-ischemic injury (HI); experiment: Hypoxic-ischemic injury (modified Levine model), histological tissue damage score; type: in vivo, rat
Method: To determine whether cG-2AllylP might prevent neuronal injury in response to stroke, cardiac arterial bypass graft surgery (CABG) or other hypoxic insults, a series of studies were carried out in rats that had been exposed to hypoxic-ischemic injury (HI). Adult rats (Wistar, 280-310 g, male) were used. The modified Levine model preparation and experimental procedures were used (Rice et al, 1981, Ann. Neural.: 9: 131-141; Guan et al J., 1993, Cereb. Blood Flow Metab.: 13(4): 609-16). These procedures in brief, consist of an HI injury induced by unilateral carotid artery ligation followed by inhalational asphyxia in the animals with an implanted lateral ventricular cannula. A guide cannula was stereotaxically placed on the top of the dura 1.5 mm to the right of the mid-line and 7.5 mm anterior to the interaural zero plane under halothane anaesthesia. The right carotid artery was double ligated two days after the cannulation. After 1 hour recovery from the anaesthesia, each of the rats were placed in an incubator where the humidity (90±5%) and temperature (31°±0.5° C.) were controlled for another hour, then exposed to hypoxia (6% oxygen) for 10 min, The animals were kept in the incubator for an additional 2 hours before treatment.
Nine pairs of rats were treated intracerebral ventricularly (icy) with either cG-2AllylP (2 ng) or its vehicle (normal saline) 2 hours after hypoxic-ischemic insult. Rats in each group were simultaneously infused with cG-2AllylP or its vehicle under light anaesthesia (1.5% halothane) 2 hours after the insult. […]
Coronal sections 8 μm in thickness were cut from the striatum, cerebral cortex and hippocampus and were stained with thionin and acid fuchsin. The histological outcome was assessed at three levels: (1) the mid level of the striatum, (2) where the completed hippocampus first appeared and (3) the level where the ventral horn of the hippocampus just appears. The severity of tissue damage was scored in the striatum, cortex and the CA1-2, CA3, CA4 and dentate gyrus of the hippocampus. […]

C=CC[C@]12CCCN1C(=O)CNC2=O [cG-2-allylP, (8aS)-Allyl-hexahydropyrrolo[1,2-a]pyrazine-1,4-dione]
expression of cleaved caspase-3 protein in the cerebral cortex [1]: decreased expression of cleaved caspase-3 protein in the cerebral cortex
pain threshold in response to von Frey hair pressure to hind paws [2]: increase the pain threshold
activation of microglia [3]: reduce activation of microglia
body weight (percentage of baseline weight) ([4]; 3 mg/kg p.o. 1/day days 1-10): significantly attenuated the effect of pyridoxine on body weight on test day 9
body weight (percentage of baseline weight) ([4]; 3 mg/kg p.o. 1/day days 1-10, listed as cG-2allylP): greater gain of body weight than in animals treated with pyridoxine alone
body weight (percentage of baseline weight) ([4]; 30 mg/kg p.o. 1/day days 1-10): significantly attenuate pyridoxine-mediated body weight loss on days 9, 14, 21 and 28
body weight (percentage of baseline weight) ([4]; 30 mg/kg p.o. 1/day days 1-10, listed as cG-2allylP): greater gain of body weight than in animals treated with pyridoxine alone
beam walking errors ([4]; 30 mg/kg p.o. days 1-10, test days 14, 21, 28, p<0.05 vs vehicle, FIG. 6): effectively prevented pyridoxine-induced beam walking errors
number of cells having neurites [5]: significantly increased the numbers of cells having neurites in a dose-dependent manner
glutamate-induced neurotoxicity [5]: significant decrease in glutamate-induced neurotoxicity
tissue damage score ([6]; 2 ng icv 2 hours after hypoxic-ischemic insult, histology 5 days after injury, vs vehicle, p<0.001, FIG. 3): significantly reduced the tissue damage in each brain region examined
neuronal damage scores ([6]; 2, 4, 20, 100 ng icv 2 hours after insult, all sites and doses other than 100 ng in striatum, FIG. 4): lessened the neural damage effects of hypoxia/ischemia
efficacy by brain region ([6]; regions with progressive injury such as dentate gyrus and cerebral cortex, FIG. 4): increased efficacy in brain regions that experienced progressive injury associated with delayed cell death

N[C@@H](CCC(=O)O)C(=O)O [Glutamate, L-glutamate, reference compound]
loss of cerebellar neurons having neurites ([5]; glutamate 1 mM, compared to vehicle-treated controls, FIG. 1): ~85%

C[C@@]12CCCN1C(=O)C1(CCCC1)NC2=O [Cyclic cyclopentyl-G-2MeP, (8aS)-Methyl-spiro[cyclopentane-1,3(4H)-tetrahydropyrrolo[1,2-a]pyrazine]-1,4(2H)-dione]
number of cells having neurites [5]: significantly increased the number of cells having neurites
glutamate-induced neurotoxicity [5]: significant decrease in glutamate-induced neurotoxicity
